Active and inactive are the calls of the source. The rule behind the calls is not given here.
What was measured:
PC-12 [1] = assay: Neuroprotective activity against RSL3-induced ferroptosis in rat PC-12 cells assessed as increase in survival rate at 10 uM preincubated with RSL3 stimulation followed by compound addition and measured after 24 hrs by CCK-8 assay (reference value: 54%); format: functional
PC-12 [2] = assay: Neuroprotective activity against RSL3-induced ferroptosis in rat PC-12 cells assessed as increase in survival rate at 10 uM preincubated with RSL3 stimulation followed by compound addition and measured after 24 hrs by CCK-8 assay; format: functional, cell-based
PC-12 [3] = assay: Anti-ferroptosis activity against RSL3-induced ferroptosis in rat PC-12 cells assessed as decrease in lipid peroxidation at 10 uM by BODIPY-C11 581/591 staining based fluorescence microscopic analysis; format: functional, cell-based
PC-12 [4] = assay: Anti-ferroptosis activity against RSL3-induced ferroptosis in rat PC-12 cells assessed as increase in GSH level at 10 uM preincubated with compound for 24 hrs followed by RSL3 stimulation and measured after 24 hrs by […] method; format: functional, cell-based; details: time 48.0 hrs
PC-12 [5] = assay: Effect on SLC7A11 expression in RSL3-induced rat PC-12 cells at 10 uM preincubated with compound for 24 hrs followed by RSL3 stimulation and measured after 24 hrs by Western blotting analysis; format: functional, cell-based; details: time 48.0 hrs
PC-12 [6] = assay: Downregulation of NCOA4 level in RSL3-induced rat PC-12 cells at 10 uM preincubated with compound for 24 hrs followed by RSL3 stimulation and measured after 24 hrs by Western blotting analysis; format: functional, cell-based; details: time 48.0 hrs
PC-12 [7] = assay: Upregulation of ferritin level in RSL3-induced rat PC-12 cells at 10 uM preincubated with compound for 24 hrs followed by RSL3 stimulation and measured after 24 hrs by Western blotting analysis; format: functional, cell-based; details: time 48.0 hrs
PC-12 [8] = assay: Upregulation of SLC7A11 expression in RSL3-induced rat PC-12 cells at 10 uM preincubated with compound for 24 hrs followed by RSL3 stimulation and measured after 24 hrs by Western blotting analysis; format: functional, cell-based; details: time 48.0 hrs

SMILES	Activity (PC-12 [1]) [%]	Activity (PC-12 [2])	Activity (PC-12 [3])	Activity (PC-12 [4])	Activity (PC-12 [5])	Activity (PC-12 [6])	Activity (PC-12 [7])	Activity (PC-12 [8])
CC(=O)NCCc1ccc(O)cc1	83	–	–	–	–	–	–	–
CC(C)=CCc1ccc2c(c1)NC(=O)C2	77	–	–	–	–	–	–	–
OCc1c[nH]c2ccccc12	–	Active	–	–	–	–	–	–
C/C(=C\Cc1ccc2c(c1)NC(=O)C2)C(=O)O	84	–	Active	Active	inactive	Active	Active	–
C/C=C(C)/C=C(\C)[C@H]1C(C)=C[C@]2(C)C[C@H](C)CC[C@H]2[C@@H]1C(=O)[C@H]1C(=O)NC(=O)[C@@H]1Cc1c[nH]c2ccccc12	–	Active	Active	–	–	Active	Active	Active
